# Patent publication US8524744B2, “Arylamine ketones, their preparation methods, the pharmaceutical composition containing them and their use” (Institute of Mataria Medica, Chinese Academy of Medical …, priority 2004, dated 2013)
# Counter-ions that a name gives are not always drawn.
# What was measured:
# [1] = system: polymorphonuclear leucocytes from rat pleural cavity; experiment: release of β-glucuronidase by polymorphonuclear leucocytes from rat pleural cavity in vitro (PAF as irritant); assay type: cell-based; details: for IC50: rat polymorphonuclear leucocytes
# Method: 1% carrageenan was injected into the right pleural cavity of Wistar rat to induce polymorphonuclear leucocytes. The cells was suspended in Dulbecoo's buffer at the concentration of 2.5×10^6 cells·ml^1. The fluid containing the compound or solvent and 250 μl of cells suspension were added in test tube and incubated in 37° C. waterbath for 15 min. Then 2.5 μl of cytochalasin B (1×10^−3 mol·L^−1) was added and the reaction was continued for 5 min. Then 2.5 μl of PAF (1×10^−4 mol·L^−1) was added and for another 5 min. The test tubes were put into ice bath to stop the reaction. The supernatant was isolated and used as the β-glucuronidase release fluid. 25 μl of the enzyme fluid, 25 μl of phenolphthalein-glucuronic acid (2.5 mmol·L^−1) and 100 μl of acetic acid buffer (0.1 mol·L^−1) were added into each well of 96-well plate which was placed into incubater and kept at 37° C.3 for 18 hr. 150 μl of NaOH (0.3 mol·L^−1) was added in each well to cease the reaction and the optical density was read at 550 nm.
# [2] = system: cutaneous vascular permeability in mice induced by PAF; experiment: increase of cutaneous vascular permeability in mice induced by PAF; assay type: in vivo, mouse; details: orally, 50 mg·kg^−1, Kunming mice
# Method: Kunming mice (male, 18-22 g) were randomly divided into two groups (treatment and control) with 10 animals for each group. The animals were orally administrated with the compounds or solvent, respectively. 1 hr later, 0.25 ml of 1% evans blue dye was injected into the tail vein. After 10 min, 0.1 ml of PAF (1×10^−8 mol·L^−1) was intracutaneously injected into the dorsal skin shaved. 1 hr later, the animals were sacrificed by cervical vertebra displacement. The skin with blue spot was cut off. The evans blue dye was extracted by 0.8 ml of mixed solution of acetone and normal saline (7:3). The supernatant was transferred into the 96-well plate. The optical density was measured at 620 nm.
# [3] = system: mouse ear edema induced by croton oil; experiment: mouse ear edema induced by croton oil; assay type: in vivo; details: orally, 50 mg·kg^−1, Kunming mice
# Method: Kuming mice (male, 18-22 g) were randomly divided into two groups (treatment and control) with 10 animals for each group. The animals were orally administrated with compounds or solvent, respectively. 1 hr later, 50 μl of 2% croton oil was smeared on the two sides of mouse left ear. After 4 hr the mice were sacrificed by cervical vertebra displacement. The two ears were cut off and the central sections were excised using a punch with a diameter of 8 mm and weighed. Edema was quantified as the weight difference between the two sections.
# [4] = system: production of NO in macrophages from mouse peritoneal cavity; experiment: production of NO in macrophages from mouse peritoneal cavity (LPS and PAF); assay type: cell-based; details: Macrophage, 24 h, read-out: IC50, inhibition of the production of NO
# Method: 4% of sodium mercaptoethanol was injected into C57BL/6 mouse peritoneal cavity to induce macrophages. The cells in peritoneal cavity were collected after injection for 3-4 days. 500 μl of cells were inoculated in the well of 24 wells plate which was placed in the CO2 incubator at 37° C. for 2.5 hr to make the cells adherent. The cells were rinsed by 1640 culture media. 495 μl of 1640 media containing irritant and 5 μl the compound or solvent were added into each well. The plate was incubated for 24 hr. The supernatant was taken out and mixed with the same volume of Griess agent. The reaction fluid was kept at room temperature for 10 min and the optical density was measured at 550 nm. The numbers read was transferred into the content of NO.
# [5] = system: macrophages from mouse peritoneal cavity; experiment: chemotaxis of macrophages from mouse peritoneal cavity induced by PAF; assay type: cell-based; details: Macrophage, 2 hr, read-out: IC50, inhibition of chemotaxis
# Method: 4% of sodium mercaptoethanol was injected into C57BL/6 mouse peritoneal cavity to induce macrophages. The cells in peritoneal cavity were collected after injection for 3-4 days. 27 μl of irritant was added into the well at low part of the chemotaxis plate. The filter membrane was covered on the wells and the top part of the plate was assembled on the filter. 55 μl of cells suspension with various concentrations of the compounds or solvent was added into the well at top part of the plate. The plate was placed into incubater with 5% CO2 at 37° C. for 2 hr. The filter was taken out, stained by hematoxylin and dehydrated. The cells migrated into the other side of the filter was counted by microscope.
# [6] = system: production of TNF-α by macrophages from mouse peritoneal cavity; experiment: production of TNF-α by macrophages from mouse peritoneal cavity (LPS, L929 bioassay); assay type: cell-based; details: Macrophage, 24 h, read-out: IC50, inhibition of the production of TNF-α
# Method: The macrophages from mouse peritoneal cavity were prepared as described before. 500 μl of cells were inoculated in 48-well plate which was incubated with 5% CO2 at 37° C. for 2.5 hr. The compounds and LPS (final concentration: 10 μg·ml^−1) were added into each well of the plate. After incubating for 24 hr the supernatant was collected. The content of TNF-α was determined by following method. 100 μl of L929 cells (2×10^5cells·ml^−1) with 100 μl of RPMI-1640 or supernatant collected above were inoculated into 96-well plate which incubated under 5% CO2 at 37° C. for 20 hr. The supernatant was discarded. 200 μl of 0.5% crystal violet was added into each well. 10 min later crystal violet outside of the cells was rinsed using normal saline. The cells were dried under room temperature. 100 μl of 10% SDS was added into each well. After the cells were lysed completely the optical density was measured at 570 nm. The well of 1640 media was as the control, The content of TNF-a was evaluated by the percentage of L929 cells survival.
# [7] = system: mouse paw swelling induced by carrageenan; experiment: mouse paw swelling induced by carrageenan; assay type: in vivo; details: orally, 50 mg·kg^−1, Kunming mice
# Method: Kunming mice (male, 18-22 g) were randomly divided into two groups (treatment and control) with 10 animals for each group. The animals were orally administrated with compounds or solvent, respectively. 1 hr later, 50 μl of 1% carrageenan was intracutaneously injected into the sole of right posterior foot. After 4 hr the animals were sacrificed by displacing cervical vertebra. The two paws were cut off at ankle joint and weighed. The swelling was evaluated by the difference of the weights of two paws.
# [8] = biological target: T1, PAF receptors of macrophages from mouse peritoneal cavity (Mus musculus, UniProt Q62035); experiment: competitive binding of [3H]-PAF to its receptors of macrophages from mouse peritoneal cavity; details: 4° C, 150 min, read-out: Ki, competition with [3H]-PAF binding
# T1 construct: The cells in peritoneal cavity were collected after injection for 3-4 days; endogenous in cells; host or cells: adherent peritoneal macrophages of C57BL/6 mice (primary)
# T1 sequence (Q62035 whole entry): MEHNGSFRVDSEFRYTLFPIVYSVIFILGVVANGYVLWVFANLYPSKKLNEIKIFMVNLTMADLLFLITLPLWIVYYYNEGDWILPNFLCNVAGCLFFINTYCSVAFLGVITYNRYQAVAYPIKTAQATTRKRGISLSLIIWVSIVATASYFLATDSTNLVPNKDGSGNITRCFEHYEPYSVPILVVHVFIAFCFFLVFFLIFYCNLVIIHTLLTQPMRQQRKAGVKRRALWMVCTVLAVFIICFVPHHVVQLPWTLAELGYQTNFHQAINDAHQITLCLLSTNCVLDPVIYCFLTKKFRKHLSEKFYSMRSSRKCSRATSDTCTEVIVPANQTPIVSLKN
# Method: 4% of sodium mercaptoethanol was injected into C57BL/6 mouse peritoneal cavity to induce macrophages. The cells in peritoneal cavity were collected after injection for 3-4 days. 500 μl of suspension (5×10^5cells·ml^−1) was inoculated into 24-well culture plate which was placed into the incubator with 5% CO2 at 37° C for 2.5 hr. The non-adherent cells and serum in media were discarded. 490 μl of Tyrode-Hepes solution and 5 μl of [^3H]-PAF (final concentration: 2.8 nmol·L^−1) were added into each well. 5 μl of unlabeled PAF (5 μmol·L^1) was added into the well for the nonspecific binding. The series concentrations of compound were added into the well for the competitive binding and the corresponding volume of solvent was added into the wells for the total binding or the nonspecific binding. The reaction fluid was incubated at 4° C for 150 min and rinsed to wipe off the free labeled ligand. 300 μl of NaOH (0.3 mol·L^−1) was added to lyse the cells. The lysate fluid was transferred into a vial in which 7 ml of scintillation solution was added. The radioactivity strength was measured by scintillation counter.
# [9] = Dose 1 × 10^−5 mol · L^−1, Irritant 2 × 10^−7 mol · L^−1
# [10] = Dose 1 × 10^−5 mol · L^−1, Irritant 1 × 10^−6 mol · L^−1
# [11] = Dose 1 × 10^−4 mol · L^−1, Irritant 2 × 10^−7 mol · L^−1
compound,measurement,setting,value
"CCOC(=O)C1CCN(CCC(=O)/C=C/c2ccc(Cl)cc2)CC1 (as salt: hydrochloride) [Compound 3, 5-[(4-Ethoxycarbonyl)piperidyl]-1-(4-chlorophenyl)-1-penten-3-one hydrochloride]",melting point,,172 to 174 °C
"O=C(C=Cc1ccc(C(F)(F)F)cc1)CCN1CCC(Cc2ccccc2)CC1 (as salt: hydrochloride) [Compound 20, 5-[(4-Benzyl)piperidyl]-1-(4-trifluoromethylphenyl)-1-penten-3-one hydrochloride]",melting point,,175 to 179 °C
"COc1ccc(C=CC(=O)CCN2CCC(Cc3ccccc3)CC2)cc1 (as salt: hydrochloride) [Compound 22a, 5-[(4-Benzyl)piperidyl]-1-(4-methoxyphenyl)-1-penten-3-one hydrochloride]",melting point,,180 to 184 °C
"COc1ccc(C=CC(=O)CCN2CC(C)OC(C)C2)cc1O (centres unmarked) (as salt: hydrochloride) [Compound 36, 5-(2,6-Dimethylmorpholinyl)-1-(3-hydroxy-4-methoxyphenyl)-1-penten-3-one hydrochloride]",melting point,,194 to 196 °C
"CCOc1cc(C=CC(=O)CCN2CC(C)OC(C)C2)ccc1O (centres unmarked) (as salt: hydrochloride) [Compound 37, 5-(2,6-Dimethylmorpholinyl)-1-(3-ethoxy-4-hydroxyphenyl)-1-penten-3-one hydrochloride]",melting point,,198 to 201 °C
"CCOC(=O)C1CCCN(CCC(=O)C=Cc2ccc(Cl)cc2Cl)C1.Cl (centres unmarked) [Compound 16, 5-[(3-Ethoxycarbonyl)piperidyl]-1-(2,4-dichlorophenyl)-1-penten-3-one hydrochloride]",Inhibition (%) of β-glucuronidase release,"[1]; Dose 2 × 10^−6 mol · L^−1, Irritant 1 × 10^−7 mol · L^−1",84.38%
same,IC50,[1],22.4 nM
same,Inhibition (%) of increase of cutaneous vascular permeability,[2],48.09%
same,Inhibition (%) of mouse ear edema,[3],29.05%
"COc1ccc(C=CC(=O)CCN2CC(C)OC(C)C2)cc1O (centres unmarked) [Compound 36, 5-(2,6-Dimethylmorpholinyl)-1-(3-hydroxy-4-methoxyphenyl)-1-penten-3-one hydrochloride]",Inhibition (%) of β-glucuronidase release,[1]; [9],129.72%
same,IC50,[1]; Leucocyte,0.555 nM
same,IC50,[4],3230 nM
same,Inhibition (%) of increase of cutaneous vascular permeability,[2],33.50%
same,IC50,[5],44.8 nM
same,IC50,[6],45.8 nM
same,Inhibition (%) of mouse paw swelling,[7],28.00%
same,Ki,[8],48100 nM
"CCOc1cc(C=CC(=O)CCN2CC(C)OC(C)C2)ccc1O (centres unmarked) [Compound 37, 5-(2,6-Dimethylmorpholinyl)-1-(3-ethoxy-4-hydroxyphenyl)-1-penten-3-one hydrochloride]",Inhibition (%) of β-glucuronidase release,[1]; [9],79.24%
same,IC50,[1]; Leucocyte,1.23 nM
same,IC50,[4],3690 nM
same,Inhibition (%) of increase of cutaneous vascular permeability,[2],38.70%
same,IC50,[5],83.2 nM
same,IC50,[6],2 nM
same,Inhibition (%) of mouse paw swelling,[7],21.60%
same,Ki,[8],68300 nM
same,Inhibition (%) of mouse ear edema,[3],33.20%
"COc1ccc(C=CC(=O)CCN2CCN(Cc3ccccc3)CC2)cc1.Cl [Compound 49, 5-[(N4-Benzyl)piperazyl]-1-(4-methoxyphenyl)-1-penten-3-one hydrochloride]",Inhibition (%) of β-glucuronidase release,[1]; [10],43.19%
"Cl.O=C(C=Cc1ccc2c(c1)OCO2)CCN1CCN(Cc2ccccc2)CC1 [Compound 51, 5-[(N4-Benzyl)piperazyl]-1-(3,4-methylenedioxyphenyl)-1-penten-3-one hydrochloride]",Inhibition (%) of β-glucuronidase release,[1]; [11],55.1%
"CN1CCN(CCC(=O)C=Cc2ccc3c(c2)OCO3)CC1.Cl [Compound 52, 5-[(N4-Methyl)piperazyl]-1-(3,4-methylenedioxyphenyl)-1-penten-3-one hydrochloride]",Inhibition (%) of β-glucuronidase release,[1]; [11],31.2%
"CC(CN1CCN(Cc2ccc3c(c2)OCO3)CC1)C(=O)C=Cc1ccc(Cl)cc1.Cl (centres unmarked) [Compound 53, 5-[N4-(3,4-Methylenedioxy(benzyl)piperazyl)]-1-(4-chlorophenyl)-1-penten-4-methyl-3-one hydrochloride]",Inhibition (%) of β-glucuronidase release,[1]; [10],37.82%
"CCOc1cc(C=CC(=O)CCN2CCN(Cc3ccc4c(c3)OCO4)CC2)ccc1OC.Cl [Compound 55, 5-[N4-(3,4-Methylenedioxy(benzyl)piperazyl)]-1-(3-ethoxy-4-methoxy-phenyl)-1-penten-3-one hydrochloride]",Inhibition (%) of β-glucuronidase release,[1]; [10],27.24%
COc1ccccc1N1CCN(CCC(=O)C=Cc2ccc(Cl)cc2)CC1.Cl [Compound 58],Inhibition (%) of β-glucuronidase release,[1]; [10],21.31%
